“And” between values parts separate entries of the source, which are not always exact repeats. Equal entries are not always repeated. Inconclusive results and toxic doses are left out. The calls were made as follows: active = survival T/C of 150% or more; inactive = T/C below 125% in these data.
Test system: CD2F1 mice, L1210 leukemia ip, survival T/C
Test: NCI In Vivo Anticancer Drug Screen. Data for tumor model L1210 Leukemia (intraperitoneal) in CD2F1 (CDF1) mice
Settings: endpoint: mean survival time, higher = longer survival
Outline: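 Mice carrying a transplanted tumor received test compound or vehicle alone. The value is the measurement in the treated group divided by that in the vehicle-treated control group.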

[1] = dose: 100.0 mg/kg/injection, schedule: Q04DX002 (ip), vehicle: saline with Tween-80
[2] = dose: 200.0 mg/kg/injection, schedule: Q04DX002 (ip), vehicle: saline with Tween-80
[3] = dose: 400.0 mg/kg/injection, schedule: Q04DX002 (ip), vehicle: saline with Tween-80
[4] = dose: 50.0 mg/kg/injection, schedule: Q01DX009 (ip), vehicle: saline with Tween-80
[5] = dose: 100.0 mg/kg/injection, schedule: Q01DX001 (ip), vehicle: saline with Tween-80
[6] = dose: 100.0 mg/kg/injection, schedule: Q01DX009 (ip), vehicle: saline with Tween-80
[7] = dose: 100.0 mg/kg/injection, schedule: Q04DX003 (ip), vehicle: saline with Tween-80
[8] = dose: 200.0 mg/kg/injection, schedule: Q01DX001 (ip), vehicle: saline with Tween-80
[9] = dose: 200.0 mg/kg/injection, schedule: Q01DX009 (ip), vehicle: saline with Tween-80
[10] = dose: 200.0 mg/kg/injection, schedule: Q04DX003 (ip), vehicle: saline with Tween-80
[11] = dose: 400.0 mg/kg/injection, schedule: Q01DX001 (ip), vehicle: saline with Tween-80
[12] = dose: 400.0 mg/kg/injection, schedule: Q04DX003 (ip), vehicle: saline with Tween-80
[13] = dose: 400.0 mg/kg/injection, schedule: Q01DX009 (ip), vehicle: saline with Tween-80
[14] = dose: 12.5 mg/kg/injection, schedule: Q01DX009 (ip), vehicle: saline with Tween-80

Measured: T/C

NS(=O)(=O)c1ccc(N2CCCCC2)c([N+](=O)[O-])c1
inactive: dose: 100.0 mg/kg/injection, schedule: Q01DX009 (ip), vehicle: other 95 % of control | [1] 91 % of control | dose: 200.0 mg/kg/injection, schedule: Q01DX009 (ip), vehicle: other 95 % of control | [2] 98 % of control | dose: 400.0 mg/kg/injection, schedule: Q01DX009 (ip), vehicle: other 101 % of control | [3] 100 % of control

CCOC(=O)c1ccc(NC(=O)NC(Cc2ccccc2)c2ccccc2)cc1 (stereo not drawn)
inactive: dose: 25.0 mg/kg/injection, schedule: Q04DX003 (ip), vehicle: saline with Tween-80 111 % of control | dose: 50.0 mg/kg/injection, schedule: Q01DX001 (ip), vehicle: saline with Tween-80 96 % of control | [4] 87 % of control and 91 % of control | dose: 50.0 mg/kg/injection, schedule: Q04DX003 (ip), vehicle: saline with Tween-80 104 % of control | [5] 96 % of control | [6] 87 % of control | [1] 91 % of control | [7] 89 % of control and 106 % of control | [8] 94 % of control | [9] 87 % of control and 90 % of control | [2] 87 % of control and 88 % of control | [10] 101 % of control | [11] 94 % of control | [3] 86 % of control

CN(C)NC(=O)CC(NCc1ccccc1)C(=O)O (stereo not drawn)
inactive: [7] 102 % of control | [10] 101 % of control | [12] 98 % of control

COc1ccccc1NC(=O)Oc1cccc(C)c1
inactive: [1] 91 % of control | [2] 88 % of control | [3] 91 % of control

CN(C)c1ccc(N=Nc2ccc3c(c2)C(=O)c2ccccc2C3=O)cc1
inactive: dose: 100.0 mg/kg/injection, schedule: Q04DX003 (ip), vehicle: other 95 % of control | dose: 200.0 mg/kg/injection, schedule: Q04DX003 (ip), vehicle: other 93 % of control | dose: 400.0 mg/kg/injection, schedule: Q04DX003 (ip), vehicle: other 98 % of control

N#CC(C#N)=C1c2ccccc2C(=O)c2ccccc21
inactive: [6] 90 % of control | [9] 86 % of control | [13] 90 % of control

CCOc1ccc(NC(=S)NC(=O)/C=C/c2ccccc2)cc1
inactive: [14] 93 % of control and 96 % of control | [5] 95 % of control | [1] 95 % of control and 98 % of control | [7] 93 % of control | [8] 100 % of control | [2] 94 % of control and 97 % of control | [10] 96 % of control | [11] 93 % of control | [13] 108 % of control and 111 % of control | [3] 94 % of control and 101 % of control | [12] 96 % of control

ClC1=C(Cl)C(Cl)=C(Cl)C1=Cc1ccccc1
inactive: dose: 3.12 mg/kg/injection, schedule: Q01DX009 (ip), vehicle: saline with Tween-80 101 % of control | dose: 6.25 mg/kg/injection, schedule: Q01DX009 (ip), vehicle: saline with Tween-80 104 % of control | [14] 105 % of control | dose: 25.0 mg/kg/injection, schedule: Q01DX009 (ip), vehicle: saline with Tween-80 106 % of control | [4] 105 % of control
